Patent US20250214969A1, “PROTEIN DEGRADERS AND USES THEREOF” (Kymera Therapeutics, Inc., priority 2022, published 2025)

Target: T1, BRD4 (Homo sapiens, UniProt O60885)
T1 construct: endogenous in cells; host or cells: HEK293
Assay: BRD4 degradation in HEK293 cells (Western blot)
Type: cell-based
Conditions: lysed after 24, Western blot
Protocol: On day 1, 6.25×10^5 HEK293 cells were seeded per well into a 12-well plate. After 24, cells were lysed in wells with 80 ul of pre-chilled RIPA Lysis buffer (Beyotime, P0013B) with protease/phosphatase inhibitor (Roche 4693116001/Roche 04906837001) for 20 min at 4 degree on a rocker, then spun down at 20,000g at 4 degree for 10 min and the BCA assay was run. 39 ul of supernatant was transferred to a fresh EP tube containing 15 ul of 4X LDS loading buffer and 6 ul 10X reducing agent to make the loading samples. The samples were then heated to 70° C. for 10 minutes, cooled to RT, and stored under−20° C. Samples were loaded with equal amount of protein onto 4-12% Bis -Tris SDS-PAGE 26 wells gel (Novex, WG1403BOX) and the gel was run for 1.5 hours at 120 V. Electrotransfer to NC membrane was completed using wet-transfer method with 250 mA for 80 min and the membrane was blocked in 5% BSA (Solarbio,A8020) with 1X TBST for 1 hour. The samples were incubated with primary antibody prepared in blocking buffer (LI-COR, 927-60001) at 4° C. overnight and the membrane was washed three times with 1X TBST, 5 minutes each. Incubate with secondary antibody for 1 hour at RT (anti-rabbit IgG (Licor,926-32211) 1:5000; anti-mouse IgG (LI-COR, 926-68070)1:5000). The membrance was then washed three times with 1X TBST, 5 minutes each and once with RO H2O, then read on LiCOR.

`Cc1sc2c(c1C)C(c1ccc(Cl)cc1)=N[C@@H](CC(=O)NCCCCCCCCCCCCCCN(C(=O)C1CCCN(c3cncc4ccccc34)C1)c1ccc(=O)n(CC(=O)O)c1)c1nnc(C)n1-2` (some centres unmarked) [I-481] was tested, and the “KLHDC2-dependent BRD4 degradation” value (FIG. 4) was “KLHDC2-dependent BRD4 degradation” and the BRD4 degradation (FIGS. 2-3) was “BRD4 degradation”.
